Assay results published in the NIST ThermoML archive (doi:10.1016/j.jct.2012.10.017).
Numbers after ± are expanded uncertainties.

Conditions: Liquid, Ebulliometric method (Recirculating still)

Compound	vapor or sublimation pressure (428.65 K)	vapor or sublimation pressure (449.39 K)
CC1=CCC2CC1C2(C)C (configuration not stated) [2-pinene]	100.7 ± 1.1 kPa	
Cc1ccc(C(C)C)cc1 [1-(1-methylethyl)-4-methylbenzene]		100.7 ± 0.6 kPa
